Tests used:
[1] = target: T1, Receptor-type tyrosine-protein phosphatase C (Homo sapiens, UniProt P08575); design: species or system Escherichia coli;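 also: inhibition of CD45 enzyme activity measured using DiFMUP as substrate; in other assays of this panel Not Active means under 50% inhibition at 10 µM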
T1 sequence (P08575 whole entry): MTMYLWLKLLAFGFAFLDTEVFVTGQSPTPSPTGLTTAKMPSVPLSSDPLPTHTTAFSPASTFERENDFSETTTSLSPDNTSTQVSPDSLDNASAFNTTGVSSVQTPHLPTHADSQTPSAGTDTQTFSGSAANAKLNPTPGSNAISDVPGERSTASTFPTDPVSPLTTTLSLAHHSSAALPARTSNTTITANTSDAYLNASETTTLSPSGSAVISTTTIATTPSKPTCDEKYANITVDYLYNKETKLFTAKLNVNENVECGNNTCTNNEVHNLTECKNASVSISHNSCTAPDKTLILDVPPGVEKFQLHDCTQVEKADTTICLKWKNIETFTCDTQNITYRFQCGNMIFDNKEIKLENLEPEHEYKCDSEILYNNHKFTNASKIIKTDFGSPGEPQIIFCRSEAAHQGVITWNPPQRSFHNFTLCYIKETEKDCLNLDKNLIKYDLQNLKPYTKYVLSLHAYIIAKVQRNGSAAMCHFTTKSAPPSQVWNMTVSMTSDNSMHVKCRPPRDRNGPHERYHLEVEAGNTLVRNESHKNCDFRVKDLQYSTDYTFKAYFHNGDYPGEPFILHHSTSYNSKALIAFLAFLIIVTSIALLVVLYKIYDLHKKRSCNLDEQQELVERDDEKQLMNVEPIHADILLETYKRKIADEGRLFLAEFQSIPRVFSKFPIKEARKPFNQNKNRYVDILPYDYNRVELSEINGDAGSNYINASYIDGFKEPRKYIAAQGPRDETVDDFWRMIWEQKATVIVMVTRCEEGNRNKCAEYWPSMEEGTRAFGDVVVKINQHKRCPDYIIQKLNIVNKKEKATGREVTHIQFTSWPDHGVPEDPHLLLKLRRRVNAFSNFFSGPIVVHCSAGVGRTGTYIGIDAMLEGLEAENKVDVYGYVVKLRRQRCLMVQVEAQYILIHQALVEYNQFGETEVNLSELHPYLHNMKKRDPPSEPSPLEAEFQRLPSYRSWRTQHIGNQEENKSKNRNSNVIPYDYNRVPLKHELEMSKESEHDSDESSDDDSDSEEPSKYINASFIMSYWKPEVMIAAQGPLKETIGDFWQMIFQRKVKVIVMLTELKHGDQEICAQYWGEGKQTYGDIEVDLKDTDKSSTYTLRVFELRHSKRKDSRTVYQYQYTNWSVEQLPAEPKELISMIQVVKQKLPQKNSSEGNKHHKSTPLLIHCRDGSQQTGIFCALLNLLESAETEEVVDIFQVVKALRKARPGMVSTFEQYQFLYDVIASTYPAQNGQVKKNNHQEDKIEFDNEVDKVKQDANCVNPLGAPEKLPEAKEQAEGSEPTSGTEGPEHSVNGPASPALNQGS

[2] = target: T2, Cytochrome P450 2A6 (Homo sapiens, UniProt P11509); conditions: bti-tn-5b1-4; also: in other assays of this panel Not Active means under 50% inhibition at 10 µM
T2 sequence (P11509 whole entry): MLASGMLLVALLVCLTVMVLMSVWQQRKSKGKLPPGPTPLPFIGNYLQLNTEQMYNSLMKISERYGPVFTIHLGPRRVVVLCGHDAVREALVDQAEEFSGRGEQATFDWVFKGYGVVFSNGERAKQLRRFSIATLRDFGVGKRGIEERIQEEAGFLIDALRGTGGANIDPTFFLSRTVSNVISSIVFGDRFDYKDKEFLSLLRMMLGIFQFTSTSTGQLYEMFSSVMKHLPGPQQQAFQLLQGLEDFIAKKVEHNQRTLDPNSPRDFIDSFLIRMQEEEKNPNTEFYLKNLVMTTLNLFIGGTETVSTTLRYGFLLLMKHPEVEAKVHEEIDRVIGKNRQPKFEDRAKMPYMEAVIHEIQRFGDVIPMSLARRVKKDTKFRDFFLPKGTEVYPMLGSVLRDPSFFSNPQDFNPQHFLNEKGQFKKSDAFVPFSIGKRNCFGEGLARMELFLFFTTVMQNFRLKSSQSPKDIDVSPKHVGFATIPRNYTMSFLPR

[3] = DRUGMATRIX: Purinergic P2X radioligand binding (ligand: [3H] alpha, beta-Methylene-ATP); format: cell membranes, Oryctolagus cuniculus, New Zealand albino, Urinary bladder, Membrane; conditions: Not Active = under 50% inhibition at 10 µM
[4] = target: T3, Leukotriene C4 synthase (Cavia porcellus, UniProt A6XA80); test: biochemical; format: tissue-based, Lung;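 also: enzyme inhibition assay of leukotriene C4 synthase, using LTA4 as the substrate; in other assays of this panel Not Active means under 50% inhibition at 10 µM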
T3 sequence (A6XA80 whole entry): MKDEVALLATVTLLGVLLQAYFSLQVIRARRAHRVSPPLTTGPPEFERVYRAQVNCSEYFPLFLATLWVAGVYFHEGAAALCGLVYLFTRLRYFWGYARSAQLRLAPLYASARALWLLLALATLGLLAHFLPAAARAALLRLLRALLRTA

[5] = DRUGMATRIX: Interleukin IL-1 radioligand binding (ligand: [125I] interleukin 1beta); format: cell membranes, Membrane; conditions: nih3t3; Not Active = under 50% inhibition at 10 µM
[6] = target: 5-hydroxytryptamine receptor 2B (Homo sapiens, UniProt P41595); format: cell membranes, CHO-K1, Membrane; conditions: cho-k1; also: in other assays of this panel Not Active means under 50% inhibition at 10 µM
[7] = DRUGMATRIX: Glutamate, NMDA, Agonism radioligand binding (ligand: [3H] CGP-39653); format: cell membranes, Rattus norvegicus, Wistar, Cerebral cortex, Membrane; conditions: Not Active = under 50% inhibition at 10 µM
[8] = DRUGMATRIX: Phosphodiesterase PDE3 enzyme inhibition (substrate: [3H]cAMP + cAMP); format: tissue-based, Homo sapiens; conditions: platelet; Not Active = under 50% inhibition at 10 µM
[9] = target: Substance-P receptor (Homo sapiens, UniProt P25103); format: cell membranes, CHO, Membrane; conditions: cho; also: in other assays of this panel Not Active means under 50% inhibition at 10 µM
[10] = target: Histamine H2 receptor (Homo sapiens, UniProt P25021); format: cell membranes, CHO-K1, Membrane; conditions: cho-k1; also: in other assays of this panel Not Active means under 50% inhibition at 10 µM
[11] = target: T4, Type-2 angiotensin II receptor (Homo sapiens, UniProt P50052); format: cell-based; conditions: cho-k1; also: in other assays of this panel Not Active means under 50% inhibition at 10 µM
T4 sequence (P50052 whole entry): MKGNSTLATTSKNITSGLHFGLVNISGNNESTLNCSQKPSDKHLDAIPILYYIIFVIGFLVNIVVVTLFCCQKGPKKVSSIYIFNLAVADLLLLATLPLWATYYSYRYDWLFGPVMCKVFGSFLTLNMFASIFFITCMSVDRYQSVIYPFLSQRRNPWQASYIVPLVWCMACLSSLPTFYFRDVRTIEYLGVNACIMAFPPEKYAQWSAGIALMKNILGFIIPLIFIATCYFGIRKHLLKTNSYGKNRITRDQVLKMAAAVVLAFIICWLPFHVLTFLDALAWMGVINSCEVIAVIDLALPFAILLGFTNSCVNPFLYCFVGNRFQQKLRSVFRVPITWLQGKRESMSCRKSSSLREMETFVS

Sequence of 5-hydroxytryptamine receptor 2B (P41595 whole entry): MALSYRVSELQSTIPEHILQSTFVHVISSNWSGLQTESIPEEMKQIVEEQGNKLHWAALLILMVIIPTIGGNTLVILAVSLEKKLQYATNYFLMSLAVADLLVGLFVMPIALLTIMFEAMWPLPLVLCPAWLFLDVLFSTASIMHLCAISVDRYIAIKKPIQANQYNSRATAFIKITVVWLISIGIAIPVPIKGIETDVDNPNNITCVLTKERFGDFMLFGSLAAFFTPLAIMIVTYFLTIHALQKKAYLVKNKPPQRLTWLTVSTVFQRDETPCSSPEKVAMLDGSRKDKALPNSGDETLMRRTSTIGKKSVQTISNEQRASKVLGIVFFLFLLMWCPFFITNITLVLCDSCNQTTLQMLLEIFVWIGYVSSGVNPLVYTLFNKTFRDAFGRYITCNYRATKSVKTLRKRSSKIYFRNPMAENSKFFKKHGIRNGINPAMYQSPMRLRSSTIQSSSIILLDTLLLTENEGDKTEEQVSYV
Sequence of Substance-P receptor (P25103 whole entry): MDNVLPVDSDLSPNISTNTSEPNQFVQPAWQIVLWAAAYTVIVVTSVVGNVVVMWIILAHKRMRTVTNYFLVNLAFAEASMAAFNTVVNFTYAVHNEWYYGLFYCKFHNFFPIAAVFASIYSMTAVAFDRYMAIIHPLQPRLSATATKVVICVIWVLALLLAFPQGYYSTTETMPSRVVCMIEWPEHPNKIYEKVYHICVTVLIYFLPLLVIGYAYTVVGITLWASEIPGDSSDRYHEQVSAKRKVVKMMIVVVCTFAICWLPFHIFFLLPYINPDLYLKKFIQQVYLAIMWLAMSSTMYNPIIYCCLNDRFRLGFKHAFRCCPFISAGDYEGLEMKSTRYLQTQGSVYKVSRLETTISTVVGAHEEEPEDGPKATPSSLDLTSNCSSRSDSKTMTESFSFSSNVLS
Sequence of Histamine H2 receptor (P25021 whole entry): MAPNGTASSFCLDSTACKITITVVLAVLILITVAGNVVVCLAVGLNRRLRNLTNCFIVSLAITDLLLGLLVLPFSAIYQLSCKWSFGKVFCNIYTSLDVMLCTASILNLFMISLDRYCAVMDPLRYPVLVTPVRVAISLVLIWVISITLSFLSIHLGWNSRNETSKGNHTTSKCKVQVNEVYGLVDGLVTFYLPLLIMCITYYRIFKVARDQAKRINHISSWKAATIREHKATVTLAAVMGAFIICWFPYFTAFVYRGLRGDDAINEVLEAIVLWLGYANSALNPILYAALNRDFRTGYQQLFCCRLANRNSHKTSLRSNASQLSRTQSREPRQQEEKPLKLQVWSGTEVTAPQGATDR

COc1cc(C(=O)NC2CCCNC2)cc(OC)c1OC (stereo unspecified) [TROXIPIDE]
Not Active: IC50 [1] | IC50 [2] | Ki [2] | IC50 [3] | Ki [3] | IC50 [4] | IC50 [5] | Ki [5] | IC50 [6] | IC50 [7] | Ki [7] | IC50 [8] | Ki [8] | IC50 [9] | IC50 [10] | IC50 [11]

CC(C)[C@H](N)C(=O)OCCOCn1cnc2c(=O)nc(N)[nH]c21 [VALACYCLOVIR]
Not Active: IC50 [1] | IC50 [2] | Ki [2] | IC50 [3] | Ki [3] | IC50 [4] | IC50 [5] | Ki [5] | IC50 [6] | IC50 [7] | Ki [7] | IC50 [8] | Ki [8] | IC50 [9] | IC50 [10] | IC50 [11]

CN[C@H](CC(C)C)C(=O)N[C@H]1C(=O)N[C@@H](CC(N)=O)C(=O)N[C@H]2C(=O)N[C@H]3C(=O)N[C@H](C(=O)N[C@H](C(=O)O)c4cc(O)cc(O)c4-c4cc3ccc4O)[C@H](O)c3ccc(c(Cl)c3)Oc3cc2cc(c3O[C@@H]2O[C@H](CO)[C@@H](O)[C@H](O)[C@H]2O[C@H]2C[C@](C)(N)[C@H](O)[C@H](C)O2)Oc2ccc(cc2Cl)[C@H]1O [VANCOMYCIN]
Not Active: IC50 [1] | IC50 [2] | Ki [2] | IC50 [3] | Ki [3] | IC50 [4] | IC50 [5] | Ki [5] | IC50 [6] | IC50 [7] | Ki [7] | IC50 [8] | Ki [8] | IC50 [9] | IC50 [10] | IC50 [11]

COc1ccc(C(CN(C)C)C2(O)CCCCC2)cc1 (stereo unspecified) [VENLAFAXINE]
Not Active: IC50 [1] | IC50 [2] | Ki [2] | IC50 [3] | Ki [3] | IC50 [4] | IC50 [5] | Ki [5] | IC50 [6] | IC50 [7] | Ki [7] | IC50 [8] | Ki [8] | IC50 [9] | IC50 [10] | IC50 [11]

IVERMECTIN
Not Active: IC50 [1] | Ki [1] | IC50 [2] | Ki [2] | IC50 [3] | Ki [3] | IC50 [4] | Ki [4] | IC50 [5] | Ki [5] | IC50 [6] | Ki [6] | IC50 [7] | Ki [7] | IC50 [8] | Ki [8] | IC50 [9] | Ki [9] | IC50 [10] | Ki [10] | IC50 [11] | Ki [11]
